The text below walks through data of patent publication US4818753A, “Synthesis and method of use for 2, 4 diaminoquinazoline” (SRI International, priority 1987, dated 1989).

SMILES strings stand for the structures. Converted amounts (≈) assume the structure as drawn. Read-outs that look alike come from different tables or passages of the source. Bounds are passed on as bounds.

Holding throughout (format): cell-based
The test system of assay [1] is Cryptococcus neoformans (13690). The assay can be described thus: Broth dilution assay, F3. The method, then:
(§1) Both broth dilution and agar dilution assays were used to assess the antifungal activity of the compounds of the invention. The cultures were maintained in Sabouraud dextrose broth (SDB) and diluted with […]. 2.5 l of SDB was prepared and distributed into sterile vessels as follows: 49 ml into 1 vessel, 27 ml into 3 vessels, 45 ml into 2 vessels.
(§2) Five mg/ml concentration of each compound was prepared using DMSO as the solvent; warming and sonication were necessary to dissolve each compound completely. The compounds were then diluted in SDB according to the following protocol:
(§3) 5. 1 ug/ml--5 ml (3)+45 ml SDB
(§4) The compound at each concentration in SDB was then dispensed into 6 tubes each containing 4 ml […]. Controls (without any compound) were also prepared to insure that the solvent itself was not fungicidal or fungistatic.
(§5) Cultures were grown in SDB for 24 h at 30° C. C. albicans and C. neoformans were diluted 1:10 in SDB before inoculation. Inoculation volume for yeasts was 2 drops of diluted cells per tube. The fungal cultures were homogenized before inoculation. The same volume was added, but without dilution. All tubes were incubated at room temperature on a rotating wheel. After 16 h of incubation at room temperature, the fungistatic assay was set up on agar plates. […] Yeasts were inoculated onto SDA (the corresponding agar) plates and fungi onto mycosel agar plates. These plates were then incubated at room temperature.
(Broth dilution looks for growth in wells or tubes with falling amounts of substance.)

Another assay deals with Candida albicans (14053). In words: Broth dilution assay, F2. On the procedure:
as §1, §2, §3, §4, §5

The subject of another assay is Candida albicans (10231). In words: Broth dilution assay, F1. On the procedure:
as §1, §2, §3, §4, §5

The test system of assay [2] is Trichophyton mentagrophytes (11481). The assay can be described thus: Broth dilution assay, F6. The method, then: as §1, §2, §3, §4, §5
For assay [3], the system named is Penicillium citrinum (9849). In words: Broth dilution assay, F19. As to conditions: for MIC: Table 1, F19, Sabouraud Dextrose Broth pH 5.5, read-out: Minimum Inhibitory Concentration (S, fungistatic). On the procedure:
as §1, §2, §3, §4, §5

The subject of assay [4] is Microsporum gypseum (14683). The assay can be described thus: Broth dilution assay, F12. To be noted: Nannizzia gypsea. The method, then:
as §1, §2, §3, §4, §5

The subject of assay [5] is Epidermophyton floccosum (15693). The assay can be described thus: Broth dilution assay, F4. On the procedure: as §1, §2, §3, §4, §5
A further assay deals with Candida. The assay can be described thus: Growth of Candida cultures with compound and/or SMX (FIG. 1). To be noted: SMX alone (100 ug).
The mark [6] stands for this setting: Table 1, F3, Sabouraud Dextrose Broth pH 5.5, read-out: Minimum Inhibitory Concentration (S, fungistatic).
The mark [7] stands for this setting: Table 1, F3, Sabouraud Dextrose Broth pH 5.5, read-out: Minimum Lethal Concentration (C, fungicidal).
The mark [8] stands for this setting: Table 1, F2, Sabouraud Dextrose Broth pH 5.5, read-out: Minimum Inhibitory Concentration (S, fungistatic).
The mark [9] stands for this setting: Table 1, F2, Sabouraud Dextrose Broth pH 5.5, read-out: Minimum Lethal Concentration (C, fungicidal).
The mark [10] stands for this setting: Table 1, F1, Sabouraud Dextrose Broth pH 5.5, read-out: Minimum Inhibitory Concentration (S, fungistatic).
Setting [11] is: Table 1, F1, Sabouraud Dextrose Broth pH 5.5, read-out: Minimum Lethal Concentration (C, fungicidal).
[12] abbreviates: Table 1, F6, Sabouraud Dextrose Broth pH 5.5, read-out: Minimum Inhibitory Concentration (S, fungistatic).
[13] abbreviates: Table 1, F6, Sabouraud Dextrose Broth pH 5.5, read-out: Minimum Lethal Concentration (C, fungicidal).
Where [14] appears, read: Table 1, F19, Sabouraud Dextrose Broth pH 5.5, read-out: Minimum Lethal Concentration (C, fungicidal).
The mark [15] stands for this setting: Table 1, Sabouraud Dextrose Broth pH 5.5, read-out: Minimum Inhibitory Concentration (S, fungistatic).
Where [16] appears, read: Table 1, Sabouraud Dextrose Broth pH 5.5, read-out: Minimum Lethal Concentration (C, fungicidal).
[17] abbreviates: Table 1, F4, Sabouraud Dextrose Broth pH 5.5, read-out: Minimum Inhibitory Concentration (S, fungistatic).
[18] abbreviates: Table 1, F4, Sabouraud Dextrose Broth pH 5.5, read-out: Minimum Lethal Concentration (C, fungicidal).
[19] abbreviates: pH 5.5, read-out: Minimum Inhibitory Concentration (S, fungistatic).
Setting [20] is: pH 5.5, read-out: Minimum Lethal Concentration (C, fungicidal).
Setting [21] is: pH 5.5, read-out: S Fungistatic.
The mark [22] stands for this setting: Table 2, F6, Sabouraud Dextrose Broth pH 5.5, read-out: C Fungicidal.
The mark [23] stands for this setting: Table 2, F6, Sabouraud Dextrose Broth pH 5.5, read-out: S Fungistatic.
[24] abbreviates: Table 2, Sabouraud Dextrose Broth pH 5.5, read-out: C Fungicidal.
Setting [25] is: Table 2, Sabouraud Dextrose Broth pH 5.5, read-out: S Fungistatic.
Where [26] appears, read: Table 2, F4, Sabouraud Dextrose Broth pH 5.5, read-out: C Fungicidal.
[27] abbreviates: Table 2, F4, Sabouraud Dextrose Broth pH 5.5, read-out: S Fungistatic.

`CCCCc1ccc2nc(N)nc(N)c2c1C` [--CH2 (CH2)2 CH3]: the MIC in assay [1] (setting [6]) is 30 µg/mL (≈ 130 µM); with Candida albicans (14053) (setting [8]) it was 100 µg/mL (≈ 434 µM); in the assay on Candida albicans (10231) (setting [10]), 100 µg/mL (≈ 434 µM); in assay [2] (setting [12]), greater than 30 µg/mL; in assay [3], 100 µg/mL (≈ 434 µM); in assay [4] (setting [15]), 30 µg/mL (≈ 130 µM). Moreover, the MIC in assay [5] (setting [17]) is 10 µg/mL (≈ 43.4 µM). The MFC in assay [1] (setting [7]) was 30 µg/mL (≈ 130 µM); in the assay with Candida albicans (14053) (setting [9]) it was 100 µg/mL (≈ 434 µM); with Candida albicans (10231) (setting [11]), greater than 100 µg/mL; in assay [2] (setting [13]) it was greater than 30 µg/mL; in assay [3] (setting [14]) it was greater than 100 µg/mL; in assay [4] (setting [16]), greater than 30 µg/mL. Further, in assay [5] (setting [18]), the MFC worked out at 30 µg/mL (≈ 130 µM).

Take `Clc1ccc(COC(Cn2ccnc2)c2ccc(Cl)cc2Cl)c(Cl)c1` (stereo not drawn) [Miconazole, reference compound]: the MFC in assay [1] (pH 5.5, read-out: C Fungicidal) is 10 µg/mL (≈ 24 µM); in assay [1] (setting [20]), 10 µg/mL (≈ 24 µM); with Candida albicans (14053) (setting [20]), 30 µg/mL (≈ 72.1 µM); in the assay on Candida albicans (10231) (pH 5.5, read-out: C Fungicidal), 100 µg/mL (≈ 240 µM); in the assay on Candida albicans (10231) (setting [20]), 30 µg/mL (≈ 72.1 µM); in assay [2] (setting [22]), 10 µg/mL (≈ 24 µM). For the same compound, the MFC in assay [2] (setting [20]) was 30 µg/mL (≈ 72.1 µM); in assay [3] (setting [20]), 30 µg/mL (≈ 72.1 µM); in assay [4] (setting [24]), 30 µg/mL (≈ 72.1 µM); in assay [5] (setting [26]), no more than 0.3 µg/mL; in assay [5] (setting [20]), 1 µg/mL (≈ 2.4 µM). Moreover, the MIC was no more than 0.1 µg/mL in assay [1] (setting [19]); no more than 0.3 µg/mL in assay [1] (setting [21]); 30 µg/mL (≈ 72.1 µM) with Candida albicans (14053) (setting [19]); 10 µg/mL (≈ 24 µM) in the assay with Candida albicans (10231) (setting [19]); 10 µg/mL (≈ 24 µM) in the assay on Candida albicans (10231) (setting [21]); 1 µg/mL (≈ 2.4 µM) in assay [2] (setting [12]). Also, the MIC in assay [2] (setting [23]) is no more than 0.3 µg/mL; in assay [3], no more than 0.1 µg/mL; in assay [4] (setting [15]) it was 3 µg/mL (≈ 7.21 µM); in assay [4] (setting [25]), 1 µg/mL (≈ 2.4 µM); in assay [5] (setting [17]) it was no more than 0.1 µg/mL; in assay [5] (setting [27]), no more than 0.3 µg/mL.

For the compound `Cc1cccc(N(C)C(=S)Oc2ccc3ccccc3c2)c1` [Tolnaftate, reference compound], the MIC was greater than 100 µg/mL in assay [1] (setting [6]); greater than 100 µg/mL in assay [1] (Table 2, F3, Sabouraud Dextrose Broth pH 5.5, read-out: S Fungistatic); greater than 100 µg/mL with Candida albicans (14053) (setting [8]); greater than 100 µg/mL in the assay with Candida albicans (10231) (setting [10]); greater than 100 µg/mL in the assay with Candida albicans (10231) (Table 2, F1, Sabouraud Dextrose Broth pH 5.5, read-out: S Fungistatic); no more than 0.1 µg/mL in assay [2] (setting [12]). Besides, the MIC in assay [2] (setting [23]) was no more than 0.3 µg/mL; in assay [3], no more than 0.3 µg/mL; in assay [4] (setting [15]), no more than 0.1 µg/mL; in assay [4] (setting [25]), no more than 0.3 µg/mL; in assay [5] (setting [17]) it was no more than 0.1 µg/mL; in assay [5] (setting [27]), no more than 0.3 µg/mL. The MFC is greater than 100 µg/mL in assay [1] (setting [7]); greater than 100 µg/mL in assay [1] (Table 2, F3, Sabouraud Dextrose Broth pH 5.5, read-out: C Fungicidal); greater than 100 µg/mL with Candida albicans (14053) (setting [9]); greater than 100 µg/mL in the assay on Candida albicans (10231) (setting [11]); greater than 100 µg/mL in the assay with Candida albicans (10231) (Table 2, F1, Sabouraud Dextrose Broth pH 5.5, read-out: C Fungicidal); 3 µg/mL (≈ 9.76 µM) in assay [2] (setting [13]). In addition, the MFC is greater than 100 µg/mL in assay [2] (setting [22]); 30 µg/mL (≈ 97.6 µM) in assay [3] (setting [14]); 10 µg/mL (≈ 32.5 µM) in assay [4] (setting [16]); 30 µg/mL (≈ 97.6 µM) in assay [4] (setting [24]); 10 µg/mL (≈ 32.5 µM) in assay [5] (setting [18]); no more than 0.3 µg/mL in assay [5] (setting [26]).

Consider `CCCCCc1ccc2nc(N)nc(N)c2c1C` [--CH2 (CH2)3 CH 3], for which the MIC is 10 µg/mL (≈ 40.9 µM) in assay [1] (setting [6]); 100 µg/mL (≈ 409 µM) with Candida albicans (14053) (setting [8]); 100 µg/mL (≈ 409 µM) in the assay on Candida albicans (10231) (setting [10]); 30 µg/mL (≈ 123 µM) in assay [2] (setting [12]); 100 µg/mL (≈ 409 µM) in assay [3]; 30 µg/mL (≈ 123 µM) in assay [4] (setting [15]). Further, the MIC in assay [5] (setting [17]) turned out to be 10 µg/mL (≈ 40.9 µM). Also, the MFC was 30 µg/mL (≈ 123 µM) in assay [1] (setting [7]); 100 µg/mL (≈ 409 µM) in the assay with Candida albicans (14053) (setting [9]); 100 µg/mL (≈ 409 µM) in the assay on Candida albicans (10231) (setting [11]); greater than 30 µg/mL in assay [2] (setting [13]); 100 µg/mL (≈ 409 µM) in assay [3] (setting [14]); greater than 30 µg/mL in assay [4] (setting [16]). In assay [5] (setting [18]), the MFC stood at 30 µg/mL (≈ 123 µM).

On to `Cc1cc(NS(=O)(=O)c2ccc(N)cc2)no1` [SMX, sulfamethoxazole, reference compound], for which the “cfu/ml over a 36-h period” value in the assay on Candida is on record as “approximately 10^8 cfu/ml”.

In the case of `Cc1cccc2nc(N)nc(N)c12` [H], the MIC in assay [1] (setting [6]) is greater than 100 µg/mL; in the assay with Candida albicans (14053) (setting [8]), greater than 100 µg/mL; with Candida albicans (10231) (setting [10]) it was greater than 100 µg/mL; in assay [2] (setting [12]), greater than 30 µg/mL; in assay [3], greater than 100 µg/mL; in assay [4] (setting [15]), greater than 30 µg/mL. Also, in assay [5] (setting [17]), the MIC was greater than 30 µg/mL. Moreover, the MFC is greater than 100 µg/mL in assay [1] (setting [7]); greater than 100 µg/mL in the assay on Candida albicans (14053) (setting [9]); greater than 100 µg/mL with Candida albicans (10231) (setting [11]); greater than 30 µg/mL in assay [2] (setting [13]); greater than 100 µg/mL in assay [3] (setting [14]); greater than 30 µg/mL in assay [4] (setting [16]). In addition, in assay [5] (setting [18]), the MFC was greater than 30 µg/mL.
